Measurements published in article PMC6002460, “Pharmacological evaluation of new constituents of “Spice”: synthetic cannabinoids based on indole, indazole, benzimidazole and carbazole scaffolds” (Forensic Toxicology, 2018).
Read-outs that look alike come from different tables or passages of the source.

How the values were obtained:
[1] = biological target: T1, human CB1 receptor (Homo sapiens, UniProt P21554); experiment: biochemical; format: binding; details: [3H]CP55,940 0.1 nM, CHO cell membranes; read-out: Ki ± SEM Human CB1
T1 construct: expressed in transfected cells; host or cells: CHO cells (membrane preparations)
T1 sequence (P21554 whole entry): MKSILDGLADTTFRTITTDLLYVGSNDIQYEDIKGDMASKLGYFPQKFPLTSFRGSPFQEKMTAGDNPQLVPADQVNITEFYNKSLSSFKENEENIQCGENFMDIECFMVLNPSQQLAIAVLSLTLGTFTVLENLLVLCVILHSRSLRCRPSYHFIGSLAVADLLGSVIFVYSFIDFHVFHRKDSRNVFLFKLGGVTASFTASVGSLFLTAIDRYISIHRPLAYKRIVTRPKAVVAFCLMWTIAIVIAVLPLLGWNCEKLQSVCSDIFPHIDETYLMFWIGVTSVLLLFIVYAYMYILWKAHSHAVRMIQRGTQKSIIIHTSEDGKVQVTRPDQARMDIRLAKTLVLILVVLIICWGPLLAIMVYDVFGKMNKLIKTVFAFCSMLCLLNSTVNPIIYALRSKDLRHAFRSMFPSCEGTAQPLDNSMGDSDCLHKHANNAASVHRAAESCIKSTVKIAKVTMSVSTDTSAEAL

[2] = biological target: T2, human CB2 receptor (Homo sapiens, UniProt P34972); experiment: biochemical; format: binding; details: [3H]CP55,940 0.1 nM, CHO cell membranes; read-out: Ki ± SEM Human CB2
T2 construct: expressed in transfected cells; host or cells: CHO cells (membrane preparations)
T2 sequence (P34972 whole entry): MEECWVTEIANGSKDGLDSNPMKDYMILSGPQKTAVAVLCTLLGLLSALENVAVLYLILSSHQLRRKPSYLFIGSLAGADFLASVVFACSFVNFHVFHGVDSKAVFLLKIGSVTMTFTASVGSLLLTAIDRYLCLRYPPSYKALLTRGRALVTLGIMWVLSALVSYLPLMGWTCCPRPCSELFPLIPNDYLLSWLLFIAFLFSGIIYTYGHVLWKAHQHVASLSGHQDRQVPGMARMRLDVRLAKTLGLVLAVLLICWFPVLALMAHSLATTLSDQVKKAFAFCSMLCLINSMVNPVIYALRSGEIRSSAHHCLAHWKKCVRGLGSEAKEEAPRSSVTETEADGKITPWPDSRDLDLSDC

[3] = biological target: T3, human GPR55 (Homo sapiens, UniProt Q9Y2T6); experiment: β-Arrestin PathHunter assay, recombinant CHO cells expressing GPR55; format: cell-based; details: for Human GPR55 % activation: agonist mode; for Human GPR55 % activation / Human GPR55 % inhibition: value in parentheses; for Human GPR55 % inhibition: antagonist mode versus LPI 1 µM
T3 construct: host or cells: CHO cells
T3 sequence (Q9Y2T6 whole entry): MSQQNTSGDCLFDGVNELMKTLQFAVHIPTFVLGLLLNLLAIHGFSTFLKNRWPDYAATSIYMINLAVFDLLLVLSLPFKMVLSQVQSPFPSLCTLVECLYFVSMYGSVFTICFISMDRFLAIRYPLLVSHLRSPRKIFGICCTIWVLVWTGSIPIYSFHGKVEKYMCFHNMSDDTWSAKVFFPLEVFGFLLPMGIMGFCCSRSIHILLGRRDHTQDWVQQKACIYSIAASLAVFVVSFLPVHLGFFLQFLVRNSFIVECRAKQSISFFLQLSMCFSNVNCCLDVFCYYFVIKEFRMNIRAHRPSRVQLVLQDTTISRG
Experimental: (§1) β-Arrestin assays were performed in recombinant CHO cells expressing either the human GPR18 or the human GPR55 as described before using the β-galactosidase enzyme fragment complementation technology (β-arrestin PathHunter™ assay; DiscoverX, Fremont, CA, USA).
(§2) The orphan receptors GPR18 and GPR55 can interact with certain natural and synthetic cannabinoids. […] Therefore, we investigated the new series of indole, indazole, benzimidazole and carbazole-derived structures in β-arrestin assays at GPR18 and GPR55 (Table 2). […] For the lipophilic substitutions, the following rank order of potency was observed: ethyl > methyl > chloro > fluoro. Therefore, it can be concluded that a lipophilic substitution in position 4 of the naphthyl residue was a requirement for GPR55 inhibition.

[4] = biological target: T4, human GPR18 (Homo sapiens, UniProt Q14330); experiment: β-Arrestin PathHunter assay, recombinant CHO cells expressing GPR18; format: cell-based; details: for Human GPR18 % activation: agonist mode; for Human GPR18 % activation / Human GPR18 % inhibition: value in parentheses; for Human GPR18 % inhibition: antagonist mode
T4 construct: host or cells: CHO cells
T4 sequence (Q14330 1-331): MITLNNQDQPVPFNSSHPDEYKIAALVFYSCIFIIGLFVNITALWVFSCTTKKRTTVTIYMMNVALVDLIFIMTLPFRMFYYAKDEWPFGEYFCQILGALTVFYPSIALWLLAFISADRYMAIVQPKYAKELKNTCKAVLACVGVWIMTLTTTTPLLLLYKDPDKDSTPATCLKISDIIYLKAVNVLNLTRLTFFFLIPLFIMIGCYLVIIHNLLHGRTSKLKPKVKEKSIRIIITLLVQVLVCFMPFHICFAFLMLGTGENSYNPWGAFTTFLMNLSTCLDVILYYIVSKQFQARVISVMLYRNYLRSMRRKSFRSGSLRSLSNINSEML
Experimental: as §1, §2

[5] = biological target: CB1 receptor; details: membrane potential assay, cited from earlier work
[6] = biological target: CB2 receptor; details: membrane potential assay, cited from earlier work

COC(=O)[C@@H](NC(=O)c1nn(CCCCCF)c2ccccc12)C(C)C [compound 8, 5F-AMB]
Ki [1]: 1.13 ± 0.48 nM
Ki [2]: 1.38 ± 0.22 nM
EC50 [3]: > 10000 nM
IC50 [3]: > 10000 nM
Human GPR55 % activation [3]: 14%
EC50 [4]: > 10000 nM
IC50 [4]: > 10000 nM
Human GPR18 % activation [4]: 1%
EC50 ([5]; ref Banister et al. [38]): 1.9 nM
EC50 ([6]; ref Banister et al. [38]): 10 nM

COC(=O)[C@@H](NC(=O)c1nn(Cc2ccc(F)cc2)c2ccccc12)C(C)C [compound 9, FUB-AMB]
Ki [1]: 0.387 ± 0.135 nM
Ki [2]: 0.536 ± 0.115 nM
EC50 [3]: > 10000 nM
IC50 [3]: > 10000 nM
Human GPR55 % activation [3]: 4%
Human GPR55 % inhibition [3]: 17%
EC50 [4]: > 10000 nM
IC50 [4]: > 10000 nM
Human GPR18 % inhibition [4]: 11%
EC50 ([5]; ref Banister et al. [38]): 2 nM
EC50 ([6]; ref Banister et al. [38]): 18 nM

COC(=O)[C@@H](NC(=O)c1nn(CC2CCCCC2)c2ccccc12)C(C)C [compound 10]
Ki [1]: 0.339 ± 0.073 nM
Ki [2]: 0.301 ± 0.092 nM
EC50 [3]: > 10000 nM
IC50 [3]: > 10000 nM
Human GPR55 % activation [3]: 2%
Human GPR55 % inhibition [3]: 31%
EC50 [4]: > 10000 nM
IC50 [4]: > 10000 nM
Human GPR18 % activation [4]: 19%
Human GPR18 % inhibition [4]: > 10 (10%)
EC50 ([5]; ref Banister et al. [38]): 5.1 nM
EC50 ([6]; ref Banister et al. [38]): 29 nM

COC(=O)[C@@H](NC(=O)c1cn(CC2CCCCC2)c2ccccc12)C(C)(C)C [compound 13, MDMB-CHMICA]
Ki [1]: 0.41 ± 0.141 nM
Ki [2]: 0.354 ± 0.05 nM
EC50 [3]: > 10000 nM
IC50 [3]: > 10000 nM
Human GPR55 % activation [3]: 5%
Human GPR55 % inhibition [3]: 38%
EC50 [4]: > 10000 nM
IC50 [4]: 14100 ± 3100 nM
Human GPR18 % activation [4]: 5%
EC50 ([5]; ref Banister et al. [38]): 10 nM
EC50 ([6]; ref Banister et al. [38]): 71 nM

COC(=O)[C@@H](NC(=O)c1nn(CC2CCCCC2)c2ccccc12)C(C)(C)C [compound 14]
Ki [1]: 0.135 ± 0.028 nM
Ki [2]: 0.222 ± 0.034 nM
EC50 [3]: > 10000 nM
IC50 [3]: 10300 ± 1700 nM
EC50 [4]: > 10000 nM
IC50 [4]: ~10000 nM
Human GPR18 % activation [4]: 27%
Human GPR18 % inhibition [4]: 51%
EC50 ([5]; ref Banister et al. [38]): 10 nM
EC50 ([6]; ref Banister et al. [38]): 128 nM

CC(C)[C@H](NC(=O)c1cn(CCCCCF)c2ccccc12)C(N)=O [compound 15, 5F-AB-PICA]
Ki [1]: 35 ± 7.7 nM
Ki [2]: 89 ± 33.2 nM
EC50 [3]: > 10000 nM
IC50 [3]: > 10000 nM
Human GPR55 % activation [3]: > 10 (10%)
EC50 [4]: > 10000 nM
IC50 [4]: > 10000 nM
Human GPR18 % activation [4]: 23%
EC50 ([5]; ref Banister et al. [42]): 5.2 nM
EC50 ([6]; ref Banister et al. [42]): 8.9 nM

CC(C)[C@H](NC(=O)c1nn(CCCCCF)c2ccccc12)C(N)=O [compound 16, 5F-AB-PINACA]
Ki [1]: 4.96 ± 1.37 nM
Ki [2]: 3.77 ± 0.25 nM
EC50 [3]: > 10000 nM
IC50 [3]: > 10000 nM
Human GPR55 % activation [3]: 15%
EC50 [4]: > 10000 nM
IC50 [4]: > 10000 nM
Human GPR18 % activation [4]: 12%
Human GPR18 % inhibition [4]: > 10 (10%)
EC50 ([5]; ref Banister et al. [42]): 0.48 nM
EC50 ([6]; ref Banister et al. [42]): 2.6 nM

CC(C)(C)[C@H](NC(=O)c1cn(CCCCCF)c2ccccc12)C(N)=O [compound 21, 5F-ADBICA]
Ki [1]: 2.72 ± 0.35 nM
Ki [2]: 1.83 ± 0.11 nM
EC50 [3]: > 10000 nM
IC50 [3]: > 10000 nM
Human GPR55 % activation [3]: 8%
EC50 [4]: > 10000 nM
IC50 [4]: > 10000 nM
Human GPR18 % activation [4]: 27%
EC50 ([5]; ref Banister et al. [42]): 0.77 nM
EC50 ([6]; ref Banister et al. [42]): 1.2 nM

CC(C)(C)[C@H](NC(=O)c1nn(CCCCCF)c2ccccc12)C(N)=O [compound 23, 5F-ADB-PINACA]
Ki [1]: 1.43 ± 0.69 nM
Ki [2]: 0.694 ± 0.078 nM
EC50 [3]: > 10000 nM
IC50 [3]: > 10000 nM
Human GPR55 % activation [3]: 18%
EC50 [4]: > 10000 nM
IC50 [4]: > 10000 nM
Human GPR18 % activation [4]: 9%
Human GPR18 % inhibition [4]: 21%
EC50 ([5]; ref Banister et al. [42]): 0.24 nM
EC50 ([6]; ref Banister et al. [42]): 2.1 nM

CC(C)(C)[C@H](NC(=O)c1nn(Cc2ccc(F)cc2)c2ccccc12)C(N)=O [compound 24, ADB-FUBINACA]
Ki [2]: 0.339 ± 0.059 nM
EC50 [3]: > 10000 nM
IC50 [3]: > 10000 nM
Human GPR55 % activation [3]: 7%
EC50 [4]: > 10000 nM
IC50 [4]: > 10000 nM
Human GPR18 % activation [4]: 7%
Human GPR18 % inhibition [4]: 16%
EC50 ([5]; ref Banister et al. [42]): 1.2 nM
EC50 ([6]; ref Banister et al. [42]): 3.5 nM

CC(C)(C)[C@H](NC(=O)c1nn(CC2CCCCC2)c2ccccc12)C(N)=O [compound 25]
Ki [1]: 0.333 ± 0.059 nM
Ki [2]: 0.331 ± 0.048 nM
EC50 [3]: > 10000 nM
IC50 [3]: > 10000 nM
Human GPR55 % activation [3]: 16%
EC50 [4]: > 10000 nM
IC50 [4]: > 10000 nM
Human GPR18 % activation [4]: 6%
Human GPR18 % inhibition [4]: > 10 (10%)

NC(=O)[C@H](Cc1ccccc1)NC(=O)c1cn(CCCCCF)c2ccccc12 [compound 27, PX-1]
Ki [1]: 485 ± 117 nM
Ki [2]: 164 ± 17 nM
EC50 [3]: > 10000 nM
IC50 [3]: > 10000 nM
Human GPR55 % activation [3]: 6%
Human GPR55 % inhibition [3]: 1%
EC50 [4]: > 10000 nM
IC50 [4]: > 10000 nM
Human GPR18 % activation [4]: 15%

NC(=O)[C@H](Cc1ccccc1)NC(=O)c1nn(CCCCCF)c2ccccc12 [compound 28, PX-2]
Ki [1]: 127 ± 43 nM
Ki [2]: 17.4 ± 1.4 nM
EC50 [3]: > 10000 nM
IC50 [3]: > 10000 nM
Human GPR55 % activation [3]: 16%
EC50 [4]: > 10000 nM
IC50 [4]: > 10000 nM
Human GPR18 % inhibition [4]: 15%

COC(=O)[C@@H](OC(=O)c1nn(CC2CCCCC2)c2ccccc12)C(C)(C)C [compound 34]
Ki [1]: 10.4 ± 7.4 nM
Ki [2]: 1.11 ± 0.14 nM
EC50 [3]: > 10000 nM
IC50 [3]: 9290 ± 1700 nM
Human GPR55 % activation [3]: 1%
EC50 [4]: > 10000 nM
IC50 [4]: 12600 ± 3500 nM
Human GPR18 % activation [4]: 0%

O=C(c1cccc2ccccc12)c1cn(Cc2ccc(F)cc2)c2ccccc12 [compound 35, FUB-JWH-018]
Ki [1]: 3.27 ± 1.76 nM
Ki [2]: 1.34 ± 0.48 nM
EC50 [3]: > 10000 nM
IC50 [3]: > 10000 nM
Human GPR55 % activation [3]: 7%
Human GPR55 % inhibition [3]: 30%
EC50 [4]: > 10000 nM
IC50 [4]: > 10000 nM
Human GPR18 % activation [4]: 20%
Human GPR18 % inhibition [4]: 30%

O=C(c1ccc(F)c2ccccc12)c1cn(CCCCCF)c2ccccc12 [compound 36, F-2201]
Ki [1]: 0.852 ± 0.192 nM
Ki [2]: 1.89 ± 0.57 nM
EC50 [3]: > 10000 nM
IC50 [3]: 22100 ± 12200 nM
EC50 [4]: > 10000 nM
IC50 [4]: > 10000 nM
Human GPR18 % activation [4]: 18%
Human GPR18 % inhibition [4]: 14%

O=C(c1ccc(Cl)c2ccccc12)c1cn(CCCCCF)c2ccccc12 [compound 37, Cl-2201]
Ki [1]: 0.772 ± 0.101 nM
Ki [2]: 1.18 ± 0.19 nM
EC50 [3]: > 10000 nM
IC50 [3]: 7120 ± 1260 nM
EC50 [4]: > 10000 nM
IC50 [4]: > 10000 nM
Human GPR18 % activation [4]: 16%
Human GPR18 % inhibition [4]: 4%
